Reference: article PMC2646255 (Journal of medicinal chemistry, 2008)

How the values were obtained:
[1] = biological target: T1, σ2 receptor (Rattus norvegicus, UniProt Q5U3Y7); assay: NIMH-PDSP binding screen
T1 sequence (Q5U3Y7 1-176): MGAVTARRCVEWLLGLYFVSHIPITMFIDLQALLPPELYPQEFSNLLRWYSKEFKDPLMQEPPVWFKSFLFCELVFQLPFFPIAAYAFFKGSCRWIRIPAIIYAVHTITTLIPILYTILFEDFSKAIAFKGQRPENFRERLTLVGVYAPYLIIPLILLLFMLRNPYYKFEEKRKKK

[2] = type: in vivo, rhesus monkeys (Macaca mulatta); conditions: 1 mg/kg i.v. at 30 min after [^11C]3, DCPQ-treated monkeys
[3] = test system: 5-HT2C receptor; assay: NIMH-PDSP binding screen; conditions: 10 μM
[4] = test system: 5-HT2A receptor; assay: NIMH-PDSP binding screen; conditions: 10 μM
[5] = biological target: σ1 receptor (Cavia porcellus, UniProt Q60492); assay: NIMH-PDSP binding screen; conditions: read-out: inhibition of binding
Sequence of σ1 receptor (Q60492 whole entry): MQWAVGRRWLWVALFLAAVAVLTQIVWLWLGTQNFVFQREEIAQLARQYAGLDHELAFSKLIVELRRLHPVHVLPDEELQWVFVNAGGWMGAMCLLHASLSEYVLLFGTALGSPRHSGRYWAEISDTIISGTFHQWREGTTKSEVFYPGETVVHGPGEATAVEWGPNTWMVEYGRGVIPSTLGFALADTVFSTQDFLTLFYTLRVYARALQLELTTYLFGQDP

[6] = test system: κ-opiate receptor; assay: NIMH-PDSP binding screen; conditions: 10 μM
[7] = monkey, DCPQ 8 mg/kg i.v.
[8] = test system: P-gp; conditions: monkey, DCPQ 8 mg/kg or 16 mg/kg i.v. before [^11C]3
[9] = test system: P-gp; conditions: P-gp knockout mouse brain; cited from earlier work

CNC(=O)C(CCN1CCC(O)(c2ccc(Cl)cc2)CC1)(c1ccccc1)c1ccccc1 [Compound 3, 4-(4-(4-Chlorophenyl)-4-hydroxypiperidin-1-yl)-2,2-diphenyl-N-methyl-butanamide]
Ki ([1]; Ki, σ2): < 10 nM | inhibition at 10 µM ([1]; read-out: inhibition of binding): > 50% | effect on washout of radioactivity from brain [2]: no discernible effect | inhibition of binding [3]: < 50% | inhibition of binding [4]: < 50% | inhibition at 10 µM [5]: > 50% | inhibition of binding [6]: < 50%

Cl.Cl.Cl.O[C@@H](COc1cccc2ncccc12)CN1CCN(C2c3ccccc3C3C(c4ccccc42)C3(Cl)Cl)CC1 (stereo partly drawn) [DCPQ, (2R)-anti-5-{3-[4-(10,11-dichloromethanodibenzo-suber-5-yl)piperazin-1-yl]-2-hydroxypropoxy}quinoline trihydrochloride, reference compound]
effect on rate at which each radiometabolite emerged in plasma [7]: little effect | effect on uptake of radioactivity into pituitary [8]: no effect

CN([11CH3])C(=O)C(CCN1CCC(O)(c2ccc(Cl)cc2)CC1)(c1ccccc1)c1ccccc1 [[^11C]loperamide]
unchanged radiotracer as share of radioactivity in brain [9]: ~ 50%

CN(C)C(=O)C(CCN1CCC(O)(c2ccc(Cl)cc2)CC1)(c1ccccc1)c1ccccc1 [loperamide, reference compound]
effect on washout of radioactivity from brain [2]: no discernible effect
